According to patent publication US20060069132A1, “Azolecarboxamide herbicides” (priority 2004, published 2006):

Experiments:
giant foxtail [1] = experiment: Test A pre-/postemergence herbicide test; type: in vivo, Setaria faberi
Method in brief: (§1)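 Greenhouse injury scoring (0–100, complete control = 100) at approximately ten days follows simultaneous pre- and postemergence application. Soil received a directed spray after seeding; seedlings of 2–10 cm at the one- to two-leaf stage were sprayed to runoff.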

wild oat = experiment: Test B postemergence herbicide test; type: in vivo, Avena fatua; settings: postemergence
Method in brief: (§2)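 Each value is a visual 0–100 response rating taken against controls 13 to 15 days after treatment in the greenhouse. Plants received formulated chemical postemergence at the 1- to 4-leaf stage or, in flooded paddy, at the 2-leaf stage.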

ducksalad = experiment: Test B flooded paddy test; type: in vivo, Heteranthera limosa; settings: scale 0 to 100 (0 no effect, 100 complete control)
Method in brief: (§3)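 Greenhouse test; postemergence application to plants at 1–4 leaves (2–18 cm); paddy species at 2 leaves; evaluated visually vs controls at 13–15 days; scale 0–100 (100 = complete control).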

Surinam grass = experiment: Test B pre-/postemergence herbicide test; type: in vivo, Urochloa decumbens; settings: for Surinam Grass plant response rating: postemergence
Method in brief: (§4)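 Visual rating, 0 (no effect) to 100 (complete control), versus untreated controls after 13–15 d in greenhouse. Pre- and postemergence applications (postemergence plants 2–18 cm, 1–4 leaves); flooded paddy arm at 2-leaf stage. Compounds in non-phytotoxic solvent plus surfactant.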

cocklebur = experiment: Test B pre-/postemergence herbicide test; type: in vivo, Xanthium strumarium; settings: for Cocklebur plant response rating: postemergence
Method in brief: (§5)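 Greenhouse pot assay with simultaneous preemergence (treated seed) and postemergence (2–18 cm seedlings) applications of surfactant-containing, non-phytotoxic solvent formulations. Response scored visually 13–15 days later on a 0–100 scale, 100 meaning complete control.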

barnyardgrass [2] = experiment: Test B pre-/postemergence herbicide test; type: in vivo, Echinochloa crus-galli; settings: for Barnyardgrass plant response rating: postemergence
Method in brief: as §5

lambsquarters = experiment: Test B pre-/postemergence herbicide test; type: in vivo, Chenopodium album; settings: for Lambsquarters plant response rating: postemergence
Method in brief: as §4

large crabgrass [3] = experiment: Test B pre-/postemergence herbicide test; type: in vivo, Digitaria sanguinalis; settings: for Crabgrass, Large plant response rating: postemergence
Method in brief: as §4

[4] = test system: small flower umbrella sedge; experiment: Test B flooded paddy test; type: in vivo, Cyperus difformis; settings: scale 0 to 100 (0 no effect, 100 complete control)
Method in brief: as §3

wheat = experiment: Test B postemergence herbicide test; type: in vivo, Triticum aestivum; design: key to Wheat plant response rating: 0 = no effect, 100 = complete control; settings: postemergence
Method in brief: as §2

corn = experiment: Test B pre-/postemergence herbicide test; type: in vivo, Zea mays; settings: for Corn plant response rating: postemergence
Method in brief: as §4

rice = experiment: Test B flooded paddy test; type: in vivo, Oryza sativa; settings: scale 0 to 100 (0 no effect, 100 complete control)
Method in brief: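 Read-out: visual comparison with controls, scored 0 to 100, where 100 means complete control and 0 no effect. Formulated chemicals were applied postemergence to plants 2–18 cm tall (1- to 4-leaf), or to flooded-paddy plants at the 2-leaf stage, then held 13 to 15 days under glass.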

giant foxtail [5] = experiment: Test B pre-/postemergence herbicide test; type: in vivo, Setaria faberi; settings: for Foxtail, Giant plant response rating: postemergence
Method in brief: as §4

redroot pigweed = experiment: Test A pre-/postemergence herbicide test; type: in vivo, Amaranthus retroflexus
Method in brief: as §1

velvetleaf [6] = experiment: Test B pre-/postemergence herbicide test; type: in vivo, Abutilon theophrasti; settings: for Velvetleaf plant response rating: postemergence
Method in brief: as §4

blackgrass = experiment: Test B postemergence herbicide test; type: in vivo, Alopecurus myosuroides; settings: postemergence
Method in brief: as §3

morningglory [7] = experiment: Test B pre-/postemergence herbicide test; type: in vivo, Ipomoea coccinea; settings: for Morningglory plant response rating: postemergence
Method in brief: as §5

morningglory [8] = experiment: Test A pre-/postemergence herbicide test; type: in vivo, Ipomoea spp.
Method in brief: as §1

barnyardgrass [9] = experiment: Test B flooded paddy test; type: in vivo, Echinochloa crus-galli; settings: scale 0 to 100 (0 no effect, 100 complete control)
Method in brief: as §3

large crabgrass [10] = experiment: Test A pre-/postemergence herbicide test; type: in vivo, Digitaria sanguinalis
Method in brief: as §1

pigweed = experiment: Test B pre-/postemergence herbicide test; type: in vivo, Amaranthus retroflexus; settings: for Pigweed plant response rating: postemergence
Method in brief: as §4

velvetleaf [11] = experiment: Test A pre-/postemergence herbicide test; type: in vivo, Abutilon theophrasti
Method in brief: as §1

barnyardgrass [12] = experiment: Test A pre-/postemergence herbicide test; type: in vivo, Echinochloa crus-galli
Method in brief: as §1

[13] = Postemergence, 500 g ai/ha, 0 to 100 scale, 0 no effect, 100 complete control
[14] = Postemergence, 2000 g ai/ha, 0 to 100 scale, 0 no effect, 100 complete control
[15] = Preemergence, 2000 g ai/ha, visual rating, 0 to 100 scale (0 no effect, 100 complete control)
[16] = preemergence, 500 g ai/ha, visual injury, 0 to 100 scale (0 no effect, 100 complete control)
[17] = 125 g ai/ha, visual rating, scale 0 (no effect) to 100 (complete control)
[18] = 500 g ai/ha, scale 0 to 100, 0 is no effect, 100 is complete control
[19] = 125 g ai/ha, 0 is no effect, 100 is complete control, preemergence
[20] = 500 g ai/ha, visual rating, 0 = no effect, 100 = complete control, preemergence
[21] = Postemergence, 125 g ai/ha, 0 to 100 scale, 0 no effect, 100 complete control
[22] = preemergence, 125 g ai/ha, visual injury, 0 to 100 scale (0 no effect, 100 complete control)

CCOc1ccc(F)c(NC(=O)c2cc(C(C)(C)C)nn2CC)c1 [Compound 348]
Foxtail, Giant plant response rating (giant foxtail [1]; [13]): 0 | Plant response rating, Foxtail, Giant (giant foxtail [1]; [14]): 0 | Foxtail, Giant plant response rating (giant foxtail [1]; [15]): 0 | Foxtail, Giant plant response rating (giant foxtail [1]; [16]): 0 | Oat, Wild plant response rating (wild oat; [17]): 20 | Oat, Wild plant response rating (wild oat; [18]): 30 | Ducksalad plant response rating (ducksalad; 1000 g ai/ha): 0 | Plant response rating (0 to 100 scale), Surinam Grass (Surinam grass; [19]): 0 | Surinam Grass plant response rating (Surinam grass; [17]): 0 | Plant response rating, Surinam Grass (Surinam grass; [20]): 0 | Surinam Grass plant response rating (Surinam grass; [18]): 0 | Plant response rating (0 to 100 scale), Cocklebur (cocklebur; [19]): 0 | Cocklebur plant response rating (cocklebur; [17]): 0 | Plant response rating, Cocklebur (cocklebur; [20]): 0 | Cocklebur plant response rating (cocklebur; [18]): 0 | Plant response rating (0 to 100 scale), Barnyardgrass (barnyardgrass [2]; [19]): 0 | Barnyardgrass plant response rating (barnyardgrass [2]; [17]): 0 | Plant response rating, Barnyardgrass (barnyardgrass [2]; [20]): 0 | Barnyardgrass plant response rating (barnyardgrass [2]; [18]): 0 | Plant response rating (0 to 100 scale), Lambsquarters (lambsquarters; [19]): 0 | Lambsquarters plant response rating (lambsquarters; [17]): 0 | Plant response rating, Lambsquarters (lambsquarters; [20]): 0 | Lambsquarters plant response rating (lambsquarters; [18]): 0 | Plant response rating (0 to 100 scale), Crabgrass, Large (large crabgrass [3]; [19]): 0 | Crabgrass, Large plant response rating (large crabgrass [3]; [17]): 0 | Plant response rating, Crabgrass, Large (large crabgrass [3]; [20]): 0 | Crabgrass, Large plant response rating (large crabgrass [3]; [18]): 0 | Sedge, Umbrella plant response rating ([4]; 1000 g ai/ha): 0 | Wheat plant response rating (wheat; [17]): 20 | Wheat plant response rating (wheat; [18]): 20 | Plant response rating (0 to 100 scale), Corn (corn; [19]): 0 | Corn plant response rating (corn; [17]): 0 | Plant response rating, Corn (corn; [20]): 0 | Corn plant response rating (corn; [18]): 0 | Rice plant response rating (rice; 1000 g ai/ha): 0 | Plant response rating (0 to 100 scale), Foxtail, Giant (giant foxtail [5]; [19]): 0 | Foxtail, Giant plant response rating (giant foxtail [5]; [17]): 0 | Plant response rating, Foxtail, Giant (giant foxtail [5]; [20]): 0 | Foxtail, Giant plant response rating (giant foxtail [5]; [18]): 0 | Pigweed plant response rating (redroot pigweed; [13]): 0 | Plant response rating, Pigweed (redroot pigweed; [14]): 0 | Pigweed plant response rating (redroot pigweed; [15]): 0 | Pigweed plant response rating (redroot pigweed; [16]): 0 | Plant response rating (0 to 100 scale), Velvetleaf (velvetleaf [6]; [19]): 0 | Velvetleaf plant response rating (velvetleaf [6]; [17]): 0 | Velvetleaf plant response rating (velvetleaf [6]; [18]): 0 | Blackgrass plant response rating (blackgrass; [17]): 20 | Blackgrass plant response rating (blackgrass; [18]): 40 | Plant response rating (0 to 100 scale), Morningglory (morningglory [7]; [19]): 0 | Morningglory plant response rating (morningglory [7]; [17]): 0 | Plant response rating, Morningglory (morningglory [7]; [20]): 0 | Morningglory plant response rating (morningglory [7]; [18]): 0 | Morningglory plant response rating (morningglory [8]; [13]): 0 | Plant response rating, Morningglory (morningglory [8]; [14]): 0 | Morningglory plant response rating (morningglory [8]; [15]): 0 | Morningglory plant response rating (morningglory [8]; [16]): 0 | Barnyardgrass plant response rating (barnyardgrass [9]; 1000 g ai/ha): 0 | Crabgrass, Large plant response rating (large crabgrass [10]; [13]): 0 | Plant response rating, Crabgrass, Large (large crabgrass [10]; [14]): 0 | Crabgrass, Large plant response rating (large crabgrass [10]; [15]): 0 | Crabgrass, Large plant response rating (large crabgrass [10]; [16]): 0 | Plant response rating (0 to 100 scale), Pigweed (pigweed; [19]): 0 | Pigweed plant response rating (pigweed; [17]): 0 | Plant response rating, Pigweed (pigweed; [20]): 0 | Pigweed plant response rating (pigweed; [18]): 0 | Velvetleaf plant response rating (velvetleaf [11]; [13]): 0 | Plant response rating, Velvetleaf (velvetleaf [11]; [14]): 0 | Velvetleaf plant response rating (velvetleaf [11]; [15]): 0 | Velvetleaf plant response rating (velvetleaf [11]; [16]): 0 | Barnyardgrass plant response rating (barnyardgrass [12]; [13]): 0 | Plant response rating, Barnyardgrass (barnyardgrass [12]; [14]): 0 | Barnyardgrass plant response rating (barnyardgrass [12]; [15]): 0 | Barnyardgrass plant response rating (barnyardgrass [12]; [16]): 0

CCn1nc(C(C)(C)C)nc1C(=O)Nc1cc(C(=O)N(C)C)ccc1F [Compound 450]
Foxtail, Giant plant response rating (giant foxtail [1]; [21]): 50 | Foxtail, Giant plant response rating (giant foxtail [1]; [13]): 75 | Foxtail, Giant plant response rating (giant foxtail [1]; [22]): 70 | Foxtail, Giant plant response rating (giant foxtail [1]; [16]): 95 | Ducksalad plant response rating (ducksalad; 125 g ai/ha): 40 | Ducksalad plant response rating (ducksalad; 500 g ai/ha): 80 | Sedge, Umbrella plant response rating ([4]; 125 g ai/ha): 60 | Sedge, Umbrella plant response rating ([4]; 500 g ai/ha): 80 | Rice plant response rating (rice; 125 g ai/ha): 60 | Rice plant response rating (rice; 500 g ai/ha): 80 | Pigweed plant response rating (redroot pigweed; [21]): 20 | Pigweed plant response rating (redroot pigweed; [13]): 55 | Pigweed plant response rating (redroot pigweed; [22]): 25 | Pigweed plant response rating (redroot pigweed; [16]): 95 | Morningglory plant response rating (morningglory [8]; [21]): 25 | Morningglory plant response rating (morningglory [8]; [13]): 30 | Morningglory plant response rating (morningglory [8]; [22]): 0 | Morningglory plant response rating (morningglory [8]; [16]): 15 | Barnyardgrass plant response rating (barnyardgrass [9]; 125 g ai/ha): 50 | Barnyardgrass plant response rating (barnyardgrass [9]; 500 g ai/ha): 80 | Crabgrass, Large plant response rating (large crabgrass [10]; [21]): 15 | Crabgrass, Large plant response rating (large crabgrass [10]; [13]): 70 | Crabgrass, Large plant response rating (large crabgrass [10]; [22]): 35 | Crabgrass, Large plant response rating (large crabgrass [10]; [16]): 70 | Velvetleaf plant response rating (velvetleaf [11]; [21]): 30 | Velvetleaf plant response rating (velvetleaf [11]; [13]): 60 | Velvetleaf plant response rating (velvetleaf [11]; [22]): 0 | Velvetleaf plant response rating (velvetleaf [11]; [16]): 35 | Barnyardgrass plant response rating (barnyardgrass [12]; [21]): 60 | Barnyardgrass plant response rating (barnyardgrass [12]; [13]): 80 | Barnyardgrass plant response rating (barnyardgrass [12]; [22]): 60 | Barnyardgrass plant response rating (barnyardgrass [12]; [16]): 95
